Measurements from paper PMC5293585, “Characteristics of a water-forming NADH oxidase from Methanobrevibacter smithii, an archaeon in the human gut” (Bioscience Reports, 2016).

Key:
NOX-ms [1] = target: T1, NOX-ms (Methanobrevibacter smithii, UniProt A5UJ73); assay: absorption spectrum of holo, apo and reconstituted enzyme; activity restored by FAD; assay type: binding; settings: apoenzyme reconstituted with equimolar FAD, room temperature, 5 min, dialysed
T1 construct: gene Msm_0046; N-terminal His-tag (pET28a, EcoRI/XhoI), tag kept; E. coli BL21(DE3); FAD-containing holoenzyme (apo form for the FAD row)
T1 sequence (A5UJ73 1-444): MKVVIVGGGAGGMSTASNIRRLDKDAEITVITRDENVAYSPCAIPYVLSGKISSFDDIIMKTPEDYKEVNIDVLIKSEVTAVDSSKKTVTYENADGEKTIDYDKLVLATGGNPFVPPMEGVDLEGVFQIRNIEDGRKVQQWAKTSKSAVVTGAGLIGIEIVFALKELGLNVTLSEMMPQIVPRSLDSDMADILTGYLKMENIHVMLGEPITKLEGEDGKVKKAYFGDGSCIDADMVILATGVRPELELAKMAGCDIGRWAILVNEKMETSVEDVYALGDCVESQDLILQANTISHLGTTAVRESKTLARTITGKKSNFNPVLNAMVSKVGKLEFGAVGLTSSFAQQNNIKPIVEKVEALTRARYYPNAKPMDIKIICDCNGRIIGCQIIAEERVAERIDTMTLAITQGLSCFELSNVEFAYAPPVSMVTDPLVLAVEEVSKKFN

NOX-ms [2] = target: T1, NOX-ms; assay: NADH oxidation at A340, Michaelis-Menten fit; assay type: biochemical; settings: apparent; O2 as co-substrate (aerobic); NADH 0.02-0.6 mM; optimal conditions (about 37°C, 50 mM sodium phosphate)
NOX-ms [3] = target: T2, NOX-ms (Methanobrevibacter smithii, UniProt A5UJ73, C230A); assay: NADH oxidation at A340, relative activity; assay type: biochemical; settings: apparent; O2 as co-substrate (aerobic); NADH 0.02-0.6 mM; optimal conditions (about 37°C, 50 mM sodium phosphate)
T2 construct: gene Msm_0046; N-terminal His-tag (pET28a, EcoRI/XhoI), tag kept; E. coli BL21(DE3); FAD-containing holoenzyme (apo form for the FAD row)
T2 sequence (A5UJ73 entry or part of it C230A): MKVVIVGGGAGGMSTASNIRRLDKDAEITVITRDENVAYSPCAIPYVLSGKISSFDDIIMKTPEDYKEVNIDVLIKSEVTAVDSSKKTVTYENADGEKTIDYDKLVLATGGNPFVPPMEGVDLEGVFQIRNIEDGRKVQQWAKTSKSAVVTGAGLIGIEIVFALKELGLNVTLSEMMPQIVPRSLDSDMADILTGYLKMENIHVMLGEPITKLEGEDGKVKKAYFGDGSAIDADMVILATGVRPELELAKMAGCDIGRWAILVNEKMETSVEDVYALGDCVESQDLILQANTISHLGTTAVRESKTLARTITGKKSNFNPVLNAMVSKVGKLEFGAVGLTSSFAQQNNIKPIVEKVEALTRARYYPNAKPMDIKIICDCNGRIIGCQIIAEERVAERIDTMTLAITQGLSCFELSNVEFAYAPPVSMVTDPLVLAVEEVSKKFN

| Km (NOX-ms [2]) [µM] | SMILES | absorption spectrum of holo, apo and reconstituted enzyme; activity restored by (NOX-ms [1]) | NADH oxidation at A340, relative activity (NOX-ms [3]) |
| --- | --- | --- | --- |
|  | Cc1cc2nc3c(=O)[nH]c(=O)nc-3n(C[C@H](O)[C@H](O)[C@H](O)COP(=O)(O)OP(=O)(O)OC[C@H]3O[C@@H](n4cnc5c(N)ncnc54)[C@H](O)[C@@H]3O)c2cc1C [FAD] | The holoenzyme can be reconstituted by incubating equimolar concentrations of apomonomers and FAD |  |
| 47.8 to 54.6 | NC(=O)C1=CN([C@@H]2O[C@H](COP(=O)(O)OP(=O)(O)OC[C@H]3O[C@@H](n4cnc5c(N)ncnc54)[C@H](O)[C@@H]3O)[C@@H](O)[C@H]2O)C=CC1 [NADH] |  | the C230A mutant had similar NOX activity to that of the wild-type protein |
